The text below walks through data of patent publication US10011610B2, “Selective BACE1 inhibitors” (Eli Lilly and Company, priority 2015, dated 2018).

Structures are written as SMILES. Read-outs that look alike come from different tables or passages of the source.

Test [1] has as its target T1, human BACE1(1-460):Fc (Homo sapiens, UniProt P56817).
T1 construct: made in house; host or cells: HEK293 (transient transfection, purified from conditioned media by Protein A)
The test is described as follows: BACE1 FRET Assay. Type of test: biochemical. As to conditions: purified recombinant huBACE1:Fc, mean±standard deviation of the mean, n=4. Here is the method: (§1) To assess selectivity of BACE1 over BACE2, the test compound is evaluated in FRET and immunoassay detection base enzymatic assays using specific substrates for BACE1 and BACE2 as described below. For in vitro enzymatic and cellular assays, the test compound is prepared in DMSO to make up a 10 mM stock solution. The stock solution is serially diluted in DMSO to obtain a ten-point dilution curve with final compound concentrations ranging from 10 μM to 0.05 nM in a 96-well round-bottom plate before conducting the in vitro enzymatic and whole cell assays.
Human BACE1 (accession number: AF190725) and human BACE2 (accession number: AF 204944) are cloned from total brain cDNA by RT-PCR. The nucleotide sequences corresponding to amino acid sequences #1 to 460 are inserted into the cDNA encoding human IgG1 (Fc) polypeptide (Vassar et al., Science, 286, 735-742 (1999)). […]
(§2) Conditioned media of HEK293 cells transiently transfected with huBACE1:Fc or huBACE2:Fc cDNA are collected. […] The purity of final product is assessed by electrophoresis in 4-20% Tris-Glycine SDS-PAGE. […]
Serial dilutions of the test compound are prepared as described above. […] The RFU of the mixture at time 0 is recorded at excitation wavelength 355 nm and emission wavelength 460 nm, after brief mixing on a plate shaker. […] The RFU at the end of incubation is recorded with the same excitation and emission settings used at time 0. […]

Test [2] addresses T2, human BACE2 (1-460):Fc (Homo sapiens, UniProt Q9Y5Z0).
T2 construct: made in house; host or cells: HEK293 (transient transfection, purified from conditioned media by Protein A)
T2 sequence (Q9Y5Z0 21-460): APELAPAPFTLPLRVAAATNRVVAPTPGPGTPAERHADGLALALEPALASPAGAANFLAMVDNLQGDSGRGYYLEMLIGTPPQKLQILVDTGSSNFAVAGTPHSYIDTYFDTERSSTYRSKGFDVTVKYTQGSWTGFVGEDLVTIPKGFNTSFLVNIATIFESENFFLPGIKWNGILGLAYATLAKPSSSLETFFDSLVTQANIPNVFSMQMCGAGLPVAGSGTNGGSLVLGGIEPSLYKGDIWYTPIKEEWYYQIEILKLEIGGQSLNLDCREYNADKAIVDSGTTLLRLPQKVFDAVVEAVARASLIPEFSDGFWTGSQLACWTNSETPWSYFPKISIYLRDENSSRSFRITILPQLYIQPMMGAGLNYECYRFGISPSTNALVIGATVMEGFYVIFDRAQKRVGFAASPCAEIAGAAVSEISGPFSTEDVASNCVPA
In words: BACE2 MBP-C125Swe Assay. In kind it is biochemical. Here is the method:
as §1
Human BACE1 (accession number: AF190725) and human BACE2 (accession number: AF 204944) are cloned from total brain cDNA by RT-PCR. The nucleotide sequences corresponding to amino acid sequences #1 to 460 are inserted into the cDNA encoding human IgG1 (Fc) polypeptide (Vassar et al., Science, 286, 735-742 (1999)). This fusion protein of BACE1(1-460) or BACE2(1-460) and human Fc, named huBACE1:Fc and huBACE2:Fc respectively, are constructed in the pJB02 vector. […]
as §2
10 point serial dilutions of test compounds are prepared in the appropriate range. […] The amount of product is measured by ELISA using MBP-C26swe standard. […]

In test [3] the test system is Abeta 1-x peptide levels in brain. The test is described as follows: In Vivo Inhibition of Beta-Secretase (brain Abeta 1-x in PDAPP mice). As to conditions: p<0.01; for reduction of Abeta 1-x peptide levels in brain hippocampus: young female PDAPP mice; for reduction of Abeta 1-x levels in brain cortical tissue: PDAPP mice, compared to vehicle-treated mice three hours after dosing. The text has this: Several animal models, including mouse, guinea pig, dog, and monkey, may be used to screen for inhibition of beta-secretase activity in vivo following compound treatment. Animals used in this invention can be wild type, transgenic, or gene knockout animals. For example, the PDAPP mouse model, prepared as described in Games et al., Nature 373, 523-527 (1995), and other non-transgenic or gene knockout animals are useful to analyze in vivo inhibition of Abeta and sAPPbeta production in the presence of inhibitory compounds. Generally, 2 month old PDAPP mice, gene knockout mice or non-transgenic animals are administered compound formulated in vehicles, such as corn oil, beta-cyclodextran, phosphate buffers, PHARMASOLVE®, or other suitable vehicles via oral, subcutaneous, intra-venous, feeding, or other route of administration. 1 to 24 hours following the administration of compound, animals are sacrificed, and brains are removed for analysis of Abeta 1-x. “Abeta 1-x” as used herein refers to the sum of Abeta species that begin with residue 1 and end with a C-terminus greater than residue 28. This detects the majority of Abeta species and is often called “total Abeta”. Total Abeta peptides (Abeta 1-x) levels are measured by a sandwich ELISA, using monoclonal 266 as a capture antibody and biotinylated 3D6 as reporting antibody. (See May, et al., Journal of Neuroscience, 31, 16507-16516 (2011)).
For acute studies, compound or appropriate vehicle is administered and animals are sacrificed at about 3 hours after dosing. Brain tissue, is obtained from selected animals and analyzed for the presence of Abeta 1-x. After chronic dosing brain tissues of older APP transgenic animals may also be analyzed for the amount of beta-amyloid plaques following compound treatment.
For example, a 0.1, 0.3, and 1 mg/kg oral dose of Example 1, to young female PDAPP mice reduced Abeta 1-x peptide levels in brain hippocampus by 32%, 40%, and 55% (all values p<0.01), respectively.

The test system of test [4] is BACE1 activity in SH-SY5YAPP695Wt cells. The test is described as follows: SH-SY5YAPP695Wt Whole Cell Assay (Abeta 1-40 and 1-42 ELISA). The note with it: Homo sapiens, 24 hours incubation, mean±standard deviation of the mean, n=4. In kind it is cell-based. Here is the method: as §1
The routine whole cell assay for the measurement of inhibition of BACE1 activity utilizes the human neuroblastoma cell line SH-SY5Y (ATCC Accession No. CRL2266) stably expressing a human APP695Wt cDNA. Cells are routinely used up to passage number 6 and then discarded.
SH-SY5YAPP695Wt cells are plated in 96 well tissue culture plates at 5.0×10^4 cells/well in 200 μL culture media (50% MEM/EBSS and Ham's F12, lx each sodium pyruvate, non-essential amino acids and NaHCO3 containing 10% FBS). […]
At the end of the incubation, conditioned media are analyzed for evidence of beta-secretase activity by analysis of Abeta peptides 1-40 and 1-42 by specific sandwich ELISAs. […]
A general note: An ELISA detects its analyte on a solid surface through an enzyme-linked reagent.

T1 sequence (P56817 22-460): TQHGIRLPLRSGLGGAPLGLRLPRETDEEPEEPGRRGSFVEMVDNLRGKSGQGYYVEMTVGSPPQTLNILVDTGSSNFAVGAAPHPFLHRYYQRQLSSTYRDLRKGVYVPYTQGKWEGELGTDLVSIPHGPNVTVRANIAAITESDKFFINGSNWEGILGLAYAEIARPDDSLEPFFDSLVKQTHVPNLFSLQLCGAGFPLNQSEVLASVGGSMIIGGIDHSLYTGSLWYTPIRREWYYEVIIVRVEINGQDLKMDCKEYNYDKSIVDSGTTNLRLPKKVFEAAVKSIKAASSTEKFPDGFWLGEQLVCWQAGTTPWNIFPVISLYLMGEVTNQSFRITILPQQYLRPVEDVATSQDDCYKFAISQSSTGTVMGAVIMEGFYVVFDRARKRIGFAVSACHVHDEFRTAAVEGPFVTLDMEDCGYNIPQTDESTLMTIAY

For `CC(F)(F)[C@H]1OC[C@]2(c3cc(NC(=O)c4ccc(C#N)cn4)ccc3F)N=C(N)SC[C@H]12` [Example 1, N-[3-[(4aS,5S,7aS)-2-Amino-5-(1,1-difluoroethyl)-4,4a,5,7-tetrahydrofuro[3,4-d][1,3]thiazin-7a-yl]-4-fluoro-phenyl]-5-cyano-pyridine-2-carboxamide], the concentration for half-maximal inhibition (IC50) in test [1] was found to be 0.509 nM; in test [2] (MBP-C125Swe substrate, ELISA detection, mean±standard deviation of the mean, n=6), 17.6 nM; in test [4] (read-out: IC50 for SH-SY5YAPP695Wt A-beta (1-40) ELISA), 0.157 nM; in test [4] (read-out: IC50 for SH-SY5YAPP695Wt A-beta (1-42) ELISA), 0.177 nM. Besides, the “ratio of BACE1 (FRET IC50 enzyme assay) to BACE2 (MBP-C125Swe cell assay)” value in test [2] (selectivity for BACE1 over BACE2) is given as “approximately 35 fold”. Besides, the figures for the “reduction of Abeta 1-x peptide levels in brain hippocampus” value in test [3] (0.1 mg/kg oral dose), in test [3] (0.3 mg/kg oral dose) and in test [3] (1 mg/kg oral dose) were 32%, 40% and 55%, respectively. Moreover, the “reduction of Abeta 1-x levels in brain cortical tissue” value stood at 38% in test [3] (0.1 mg/kg), 50% in test [3] (0.3 mg/kg) and 67% in test [3] (1 mg/kg).

Broadly, the IC50 is the concentration that gives 50% inhibition.
